The target of test [1] is T1, c-Met (cytoplasmic domain) (Homo sapiens, UniProt P08581).
T1 construct: 10 ng/mL c-Met (cytoplasmic domain, Invitrogen Corporation #PV3143); purchased Invitrogen Corporation PV3143
The test can be described thus: c-Met Kinase Assay (same methods as for ALK, with modifications). The conditions noted are these: c-Met kinase inhibition, 1 μM ATP (Km level); read-out: cMet Activity. The test is classed as biochemical. The procedure, abridged: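 Wells were coated with 10 μg/mL phospholipase C-γ substrate in TBS, and reactions were started with 10 ng/mL c-Met cytoplasmic domain and run at 37° C for 15 minutes. Phosphorylated product was detected with Eu-N1-labeled PT66 antibody. IC50 values came from sigmoidal variable-slope fits of percent inhibition versus log compound concentration.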

Test [2] has as its target T2, baculovirus-expressed ALK (Homo sapiens, UniProt Q9UM73).
T2 construct: host or cells: baculovirus expression system
The test can be described thus: ALK Kinase Assay (ELISA-type, time-resolved fluorescence). The test is classed as biochemical. The conditions noted are these: ALK kinase inhibition, 1 μM ATP (Km level); read-out: ALK Activity. The procedure, abridged:
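Substrate coating: phospholipase C-γ, 10 μg/mL in TBS. Kinase step: 30 ng/ml ALK, 15 min, 37° C. Detection and analysis: Eu-N1 PT66 antibody, with IC50 fitted as a sigmoidal variable-slope dose-response curve.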
In general terms: In an ELISA, binding on a coated surface is turned into a signal by an enzyme label.

T2 sequence (Q9UM73 19-1620): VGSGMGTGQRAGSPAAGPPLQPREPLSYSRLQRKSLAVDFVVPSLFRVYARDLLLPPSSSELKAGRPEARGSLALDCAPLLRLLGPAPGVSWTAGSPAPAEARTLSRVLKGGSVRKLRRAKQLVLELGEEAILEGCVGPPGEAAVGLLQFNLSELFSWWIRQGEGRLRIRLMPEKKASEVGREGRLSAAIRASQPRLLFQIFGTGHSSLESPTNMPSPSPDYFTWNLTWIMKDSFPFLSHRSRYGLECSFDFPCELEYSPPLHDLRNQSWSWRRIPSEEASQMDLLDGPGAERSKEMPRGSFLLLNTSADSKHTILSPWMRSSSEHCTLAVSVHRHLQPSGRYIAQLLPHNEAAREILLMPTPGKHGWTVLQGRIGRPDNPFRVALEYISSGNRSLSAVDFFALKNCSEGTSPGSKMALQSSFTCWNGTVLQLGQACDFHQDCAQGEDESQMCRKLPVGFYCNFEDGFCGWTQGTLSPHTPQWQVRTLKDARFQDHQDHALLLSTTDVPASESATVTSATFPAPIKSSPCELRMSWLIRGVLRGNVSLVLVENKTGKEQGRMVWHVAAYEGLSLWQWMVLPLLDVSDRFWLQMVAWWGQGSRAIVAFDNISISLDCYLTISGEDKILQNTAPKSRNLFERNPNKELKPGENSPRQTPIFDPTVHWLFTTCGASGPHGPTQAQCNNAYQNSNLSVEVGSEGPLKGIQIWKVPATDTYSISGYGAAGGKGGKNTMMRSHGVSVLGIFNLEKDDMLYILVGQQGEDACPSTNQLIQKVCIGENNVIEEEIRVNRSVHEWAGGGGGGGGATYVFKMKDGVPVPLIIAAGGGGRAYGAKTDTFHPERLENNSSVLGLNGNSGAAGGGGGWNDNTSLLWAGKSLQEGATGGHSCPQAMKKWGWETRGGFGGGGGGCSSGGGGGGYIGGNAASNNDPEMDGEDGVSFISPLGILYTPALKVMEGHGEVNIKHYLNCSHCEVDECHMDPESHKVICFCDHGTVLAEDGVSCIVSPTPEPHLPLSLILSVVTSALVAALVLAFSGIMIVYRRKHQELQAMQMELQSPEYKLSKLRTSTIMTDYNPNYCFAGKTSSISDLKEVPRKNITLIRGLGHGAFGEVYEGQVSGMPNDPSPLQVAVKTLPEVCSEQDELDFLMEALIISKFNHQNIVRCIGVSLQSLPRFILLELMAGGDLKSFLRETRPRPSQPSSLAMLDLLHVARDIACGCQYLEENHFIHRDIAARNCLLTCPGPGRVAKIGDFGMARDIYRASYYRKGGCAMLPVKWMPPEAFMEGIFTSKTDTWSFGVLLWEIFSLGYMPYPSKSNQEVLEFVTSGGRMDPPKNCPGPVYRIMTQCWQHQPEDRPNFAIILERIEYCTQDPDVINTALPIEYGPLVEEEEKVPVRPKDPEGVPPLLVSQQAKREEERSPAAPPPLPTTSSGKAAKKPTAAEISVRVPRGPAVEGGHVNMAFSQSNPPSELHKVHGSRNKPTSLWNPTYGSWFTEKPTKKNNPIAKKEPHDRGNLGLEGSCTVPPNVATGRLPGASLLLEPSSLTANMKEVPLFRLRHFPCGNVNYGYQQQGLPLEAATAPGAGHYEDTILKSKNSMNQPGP
T1 sequence (P08581 956-1390 limits assumed): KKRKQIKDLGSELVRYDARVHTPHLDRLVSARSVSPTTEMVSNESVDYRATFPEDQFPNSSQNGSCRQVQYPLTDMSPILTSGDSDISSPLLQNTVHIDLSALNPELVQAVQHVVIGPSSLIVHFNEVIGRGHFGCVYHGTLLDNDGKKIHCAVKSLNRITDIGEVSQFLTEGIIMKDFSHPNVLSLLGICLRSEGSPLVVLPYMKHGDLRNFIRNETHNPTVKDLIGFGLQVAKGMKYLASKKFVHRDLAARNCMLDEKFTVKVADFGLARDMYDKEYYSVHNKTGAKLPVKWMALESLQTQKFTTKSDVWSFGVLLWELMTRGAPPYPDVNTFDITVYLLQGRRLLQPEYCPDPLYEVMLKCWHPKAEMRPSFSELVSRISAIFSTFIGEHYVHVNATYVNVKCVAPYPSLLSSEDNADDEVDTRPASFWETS

For the compound `CCN1CCc2ccc(Nc3ncc(Cl)c(NCCCC(=O)NC)n3)cc2CC1` [Example 212, 4-[5-Chloro-2-(3-ethyl-2,3,4,5-tetrahydro-1H-benzo[d]azepin-7-ylamino)-pyrimidin-4-ylamino]-N-methyl-butyramide], the IC50 in test [1] and in test [2] was 1000 to 10000 nM in each case.
For `CNC(=O)c1ccccc1Nc1nc(Nc2cccc3c2C(=O)N(C)CCN3C)ncc1Cl` [Example 213, 2-[5-Chloro-2-(1,4-dimethyl-5-oxo-2,3,4,5-tetrahydro-1H-benzo[e][1,4]diazepin-6-ylamino)-pyrimidin-4-ylamino]-N-methyl-benzamide], the figures for the IC50 in test [1] and in test [2] were > 10000 nM and 1000 to 10000 nM, respectively.
For `CN1CCN(C)c2cccc(Nc3ncc(Cl)c(N[C@@H]4CCCC[C@H]4NS(C)(=O)=O)n3)c2C1=O` [Example 214, N-{(1R,2R)-2-[5-Chloro-2-(1,4-dimethyl-5-oxo-2,3,4,5-tetrahydro-1H-benzo[e][1,4]diazepin-6-ylamino)-pyrimidin-4-ylamino]-cyclohexyl}-methanesulfonamide], the IC50 lay within 1000 to 10000 nM in test [1] and 100 to 1000 nM in test [2].
For `CN1CCN(C)c2cccc(Nc3ncc(Cl)c(Nc4ccccc4NS(C)(=O)=O)n3)c2C1=O` [Example 215, N-{2-[5-Chloro-2-(1,4-dimethyl-5-oxo-2,3,4,5-tetrahydro-1H-benzo[e][1,4]diazepin-6-ylamino)-pyrimidin-4-ylamino]-phenyl}-methanesulfonamide] the same measures were > 10000 nM and > 10000 nM.
For `CCN1CCc2ccc(Nc3ncc(Cl)c(Nc4ccccc4-c4nccn4C)n3)cc2CC1` [Example 216, 5-Chloro-N*2*-(3-ethyl-2,3,4,5-tetrahydro-1H-benzo[d]azepin-7-yl)-N*4*-[2-(1-methyl-1H-imidazol-2-yl)-phenyl]-pyrimidine-2,4-diamine] the same measures were 100 to 1000 nM and < 100 nM.
As to `Cn1ccnc1-c1ccccc1Nc1nc(Nc2ccc3c(c2)CCC(=O)CC3)ncc1Cl` [Example 217, 2-{5-Chloro-4-[2-(1-methyl-1H-imidazol-2-yl)-phenylamino]-pyrimidin-2-ylamino}-5,6,8,9-tetrahydro-benzocyclohepten-7-one], the IC50 is 100 to 1000 nM in test [1] and < 100 nM in test [2].
Turning to `Cn1ccnc1-c1ccccc1Nc1nc(Nc2ccc3c(c2)CCC(N2CCOCC2)CC3)ncc1Cl` (stereo not drawn) [Example 218, 5-Chloro-N*4*-[2-(1-methyl-1H-imidazol-2-yl)-phenyl]-N*2*-(7-morpholin-4-yl-6,7,8,9-tetrahydro-5H-benzocyclohepten-2-yl)-pyrimidine-2,4-diamine], the IC50 in test [1] is 100 to 1000 nM; in test [2] it was < 100 nM.
For `Cn1ccnc1-c1ccccc1Nc1nc(Nc2ccc3c(c2)CCC(F)(F)CC3)ncc1Cl` [Example 219, 5-Chloro-N*2*-(7,7-difluoro-6,7,8,9-tetrahydro-5H-benzocyclohepten-2-yl)-N*4*-[2-(1-methyl-1H-imidazol-2-yl)-phenyl]-pyrimidine-2,4-diamine] the same measures were > 10000 nM and 100 to 1000 nM.
For `CC1(C)CCC(=O)Nc2ccc(Nc3ncc(Cl)c(Nc4ccccc4-c4ncc[nH]4)n3)cc21` [Example 220, 7-{5-Chloro-4-[2-(1H-imidazol-2-yl)-phenylamino]-pyrimidin-2-ylamino}-5,5-dimethyl-1,3,4,5-tetrahydro-benzo[b]azepin-2-one] the same measures were 1000 to 10000 nM and < 100 nM.
For `COCCN1CCc2ccc(Nc3ncc(Cl)c(Nc4ccccc4-c4ncc[nH]4)n3)cc2CC1` [Example 221, 5-Chloro-N*4*-[2-(1H-imidazol-2-yl)-phenyl]-N*2*-[3-(2-methoxy-ethyl)-2,3,4,5-tetrahydro-1H-benzo[d]azepin-7-yl]-pyrimidine-2,4-diamine] the same measures were 100 to 1000 nM and < 100 nM.
In the case of `CCOCn1ccnc1-c1ccccc1Nc1nc(Nc2ccc3c(c2)CCN(CCOC)CC3)ncc1Cl` [Example 222, 5-Chloro-N*4*-[2-(1-ethoxymethyl-1H-imidazol-2-yl)-phenyl]-N*2*-[3-(2-methoxy-ethyl)-2,3,4,5-tetrahydro-1H-benzo[d]azepin-7-yl]-pyrimidine-2,4-diamine], the values for the IC50 in test [1] and in test [2] were 1000 to 10000 nM and < 100 nM, respectively.
Regarding `CS(=O)(=O)Nc1ccccc1Nc1nc(Nc2ccc3c(c2)CNC(=O)NC3)ncc1Cl` [Example 225, N-{2-[5-Chloro-2-(3-oxo-2,3,4,5-tetrahydro-1H-benzo[e][1,3]diazepin-7-ylamino)-pyrimidin-4-ylamino]-phenyl}-methanesulfonamide], the results for the IC50 in test [1] and in test [2] were 1000 to 10000 nM and < 100 nM, respectively.
For `CS(=O)(=O)N[C@@H]1CCCC[C@H]1Nc1nc(Nc2ccc3c(c2)CNC(=O)NC3)ncc1Cl` [Example 226, N-{(1R,2R)-2-[5-Chloro-2-(3-oxo-2,3,4,5-tetrahydro-1H-benzo[e][1,3]diazepin-7-ylamino)-pyrimidin-4-ylamino]-cyclohexyl}-methanesulfonamide] the same measures were 1000 to 10000 nM and < 100 nM.
For the compound `CNC(=O)c1ccccc1Nc1nc(Nc2ccc3c(c2)CNC(=O)NC3)ncc1Cl` [Example 227, 2-[5-Chloro-2-(3-oxo-2,3,4,5-tetrahydro-1H-benzo[e][1,3]diazepin-7-ylamino)-pyrimidin-4-ylamino]-N-methyl-benzamide], the IC50 in test [1] and in test [2] was < 100 nM in each case.
Turning to `NC(=O)C1C2C=CC(C2)C1Nc1nc(Nc2ccc3c(c2)CNC(=O)NC3)ncc1Cl` (stereo not drawn) [Example 228, (2-exo,3-exo)-3-[5-Chloro-2-(3-oxo-2,3,4,5-tetrahydro-1H-benzo[e][1,3]diazepin-7-ylamino)-pyrimidin-4-ylamino]-bicyclo[2.2.1]hept-5-ene-2-carboxylic acid amide], the values for the IC50 in test [1] and in test [2] were 100 to 1000 nM and < 100 nM, respectively.
In the case of `CNC(=O)c1ccccc1Nc1nc(Nc2cccc3c2C(=O)NC(C)CN3C(=O)C(F)(F)F)ncc1Cl` (stereo not drawn) [Example 229, 2-{5-Chloro-2-[3-methyl-5-oxo-1-(2,2,2-trifluoro-acetyl)-2,3,4,5-tetrahydro-1H-benzo[e][1,4]diazepin-6-ylamino]-pyrimidin-4-ylamino}-N-methyl-benzamide], the IC50 in test [1] and in test [2] was > 10000 nM each time.
For `CC1CNC(=O)c2c(Nc3ncc(Cl)c(N[C@@H]4CCCC[C@H]4NS(C)(=O)=O)n3)cccc2N1C(=O)C(F)(F)F` (stereo partly drawn) [Example 231, N-((1R,2R)-2-{5-Chloro-2-[2-methyl-5-oxo-1-(2,2,2-trifluoro-acetyl)-2,3,4,5-tetrahydro-1H-benzo[e][1,4]diazepin-6-ylamino]-pyrimidin-4-ylamino}-cyclohexyl)-methanesulfonamide], the IC50 in test [1] lay in the range of 1000 to 10000 nM; in test [2], 100 to 1000 nM.
For `CCN1CCc2ccc(Nc3ncc(Cl)c(N[C@@H]4CCCC[C@H]4NS(C)(=O)=O)n3)c(OC)c2CC1` [Example 232, N-{(1R,2R)-2-[5-Chloro-2-(3-ethyl-6-methoxy-2,3,4,5-tetrahydro-1H-benzo[d]azepin-7-ylamino)-pyrimidin-4-ylamino]-cyclohexyl}-methanesulfonamide] the same measures were > 10000 nM and < 100 nM.

These data come from US8148391B2 (Cephalon, Inc., priority 2006, dated 2012).
